1 compound from patent US20210038579A1, “Treatment Of Patients With Classic Fabry Disease” (Amicus Therapeutics, Inc., priority 2018, published 2021) can be followed below.

Assay in all cases: HEK assay: α-Gal A activity in HEK-293 cell lysate with migalastat
Holding throughout (format): cell-based

For experiment [1], the target named is T1, α-Gal A mutant form p.Ala156Thr (c.466 G > A) (Homo sapiens, UniProt P06280, A156T).
T1 construct: expressed in transfected cells; host or cells: HEK-293
T1 sequence (P06280 32-429 A156T): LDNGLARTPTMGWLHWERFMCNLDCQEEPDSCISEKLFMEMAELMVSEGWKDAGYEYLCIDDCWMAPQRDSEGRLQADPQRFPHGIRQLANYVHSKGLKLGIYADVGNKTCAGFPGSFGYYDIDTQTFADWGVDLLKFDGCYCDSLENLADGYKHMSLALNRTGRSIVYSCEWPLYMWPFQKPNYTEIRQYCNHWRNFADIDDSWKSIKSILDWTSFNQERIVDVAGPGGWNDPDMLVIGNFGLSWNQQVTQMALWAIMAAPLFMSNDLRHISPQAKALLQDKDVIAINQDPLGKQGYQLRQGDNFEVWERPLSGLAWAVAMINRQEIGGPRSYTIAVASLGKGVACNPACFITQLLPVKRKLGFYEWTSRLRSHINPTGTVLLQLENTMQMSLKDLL
The protocol: (§1) Such mutations are also referred to herein as “HEK assay amenable” mutations.
(§2) In this assay, cDNA constructs are created. The corresponding α-Gal A mutant forms are transiently expressed in HEK-293 cells. Cells are then incubated±migalastat (17 nM to 1 mM) for 4 to 5 days. After, α-Gal A levels are measured in cell lysates using a synthetic fluorogenic substrate (4-MU-α-Gal) or by western blot. This has been done for known disease-causing missense or small in-frame insertion/deletion mutations.

Experiment [2] concerns the target T2, α-Gal A mutant form p.Asp322Glu (c.966 C > A) (Homo sapiens, UniProt P06280, D322E).
T2 construct: expressed in transfected cells; host or cells: HEK-293
T2 sequence (P06280 32-429 D322E): T1 sequence (P06280 32-429 A156T) with T125A, D291E
The protocol: as §1, §2

Experiment [3] deals with T3, α-Gal A mutant form p.Gly144Val (c.431 G > T) (Homo sapiens, UniProt P06280, G144V).
T3 construct: expressed in transfected cells; host or cells: HEK-293
T3 sequence (P06280 32-429 G144V): T1 sequence (P06280 32-429 A156T) with G113V, T125A
The protocol: as §1, §2

Experiment [4] concerns the target T4, α-Gal A mutant form p.Met187Ile (c.561 G > A) (Homo sapiens, UniProt P06280, M187I).
T4 construct: expressed in transfected cells; host or cells: HEK-293
T4 sequence (P06280 32-429 M187I): T1 sequence (P06280 32-429 A156T) with T125A, M156I
The protocol: as §1, §2

For experiment [5], the target named is T5, α-Gal A mutant form p.Phe 295Cys (c.884 T > G) (Homo sapiens, UniProt P06280, F295C).
T5 construct: expressed in transfected cells; host or cells: HEK-293
T5 sequence (P06280 32-429 F295C): T1 sequence (P06280 32-429 A156T) with T125A, F264C
As to the method:
as §1, §2

Where [6] appears, read: +10 μM migalastat, HEK-293 cell lysate, mean ± SEM, n = 20.
[7] abbreviates: HEK293, 10 μM migalastat minus baseline, read-out: Absolute increase at 10 μM (% WT).

Where a chain is given by its changes, count along the chain named.

With `OC[C@H]1NC[C@H](O)[C@@H](O)[C@H]1O` [migalastat], the “α-Gal A activity at 10 μM (fold over baseline)” value is 7.75 fold over baseline in experiment [1] (10 μM migalastat); 3.98 fold over baseline in experiment [2] (10 μM migalastat); 11.58 fold over baseline in experiment [3] (10 μM migalastat); 6.10 fold over baseline in experiment [4] (10 μM migalastat); 4.22 fold over baseline in experiment [5] (10 μM migalastat). Also, the “+Migalastat α-Gal A activity” value was 7034 ± 289 nmol/mg/h in experiment [1] (setting [6]); 9554 ± 667 nmol/mg/h in experiment [2] (setting [6]); 2924 ± 335 nmol/mg/h in experiment [3] (setting [6]); 10824 ± 555 nmol/mg/h in experiment [4] (setting [6]); 5051 ± 190 nmol/mg/h in experiment [5] (setting [6]). In addition, the “+Migalastat α-Gal A activity % WT” value in experiment [1] (setting [6]) amounted to 21.9 ± 0.9 % WT; in experiment [2] (setting [6]), 26.8 ± 1.3 % WT; in experiment [3] (setting [6]) it was 9.2 ± 1.2 % WT; in experiment [4] (setting [6]), 30.7 ± 1.1 % WT; in experiment [5] (setting [6]), 14.5 ± 0.6 % WT. Besides, the activation at 10 µM in experiment [1] (setting [7]) stood at 19.1%; in experiment [2] (setting [7]), 20%; in experiment [3] (setting [7]) it was 8.4%; in experiment [4] (setting [7]) it was 25.6%; in experiment [5] (setting [7]), 11.1%.
